According to US20220290196A1, “GENETICALLY ENGINEERED MICROBES AND BIOSYNTHETIC METHODS” (The Regents of the University of California, priority 2019, published 2022):

These molecules were tested on S. coelicolor M1146-tarM1Δtar14 (assay: Feeding/chemical complementation experiment, incorporation into taromycin). Conditions: S. coelicolor M1146-tarM1Δtar14 mutant fed with compound.
Format: cell-based, Streptomyces coelicolor
Protocol: For taromycin production, seed culture in TSBY medium was inoculated with corresponding S. coelicolor spore suspension (collected from fresh SFM plates) and was cultured for 36-48 h till a dense creamy consistency was reached. Kanamycin at 10 μg mL^−1 final concentration was added to the seed cultures of S. coelicolor M1146-pCAP01-tarM1 and S. coelicolor M1146-pCAP01-tarM1Δtar14. Inocula of seed culture (5%, v/v) were used for fermentation in MP medium (1% glucose, 1% soluble starch, 0.4% peptone, 0.3% yeast extract, 0.3% soytone, 0.2% meat extract, 0.2% CaCO3, and 0.5% NaCl, pH 7.2). Fermentation was carried out at 30° C. and 220 rpm in a rotary incubator for 6 days. A maximum of 40 mL of production medium was added into 250 mL flask with metal springs.
S. coelicolor M1146-pCAP01-tarM1Δtar14 cultures were grown as described in Section 3 for taromycin production. After 18 and 36 h of cultivation, tryptophan analogues in the form of water suspension were added to the production cultures to a final concentration 2 mM. The cultures were further incubated for 5 days before extraction and further analysis by LC-HRMS^n. All experiments were repeated independently twice with three replicates for each compound. In parallel, cultures of S. coelicolor M1146-pCAP01-tarM1 and S. coelicolor M1146-pCAP01-tarM1Δtar14 were grown as controls.
To analyze production of taromycins and analogues, solid phase extraction of the culture supernatants was performed with Amberlite XAD-16 resin (SIGMA). For analytical purposes around 1 g of washed and equilibrated resin was added to 20 mL of supernatant followed by shaking for 30-60 min. Samples were then spun down and decanted. The resin was washed twice with water (15 mL), before elution with methanol (5 mL). The methanol extracts from the resin were used for LCMS analysis without additional concentration step.

| Molecule | Chemical complementation of taromycin production |
| --- | --- |
| N[C@@H](Cc1c[nH]c2cc(Cl)ccc12)C(=O)O [Compound 7, L-6-Chlorotryptophan] | restored taromycin production |

Same assay, conditions: incorporation at residue-1 and residue-13; analogue fed at 2 mM; judged by comparison to taromycin yields by S. coelicolor M1146-tarM1

| Molecule | Feeding, % incorporation, A1 + A13 domain |
| --- | --- |
| N[C@@H](Cc1c[nH]c2cc(Cl)ccc12)C(=O)O [Compound 7, L-6-Chlorotryptophan] | 100% |
| N[C@@H](Cc1c[nH]c2cc(F)ccc12)C(=O)O [Compound 16, D/L-6-fluorotryptophan] | 90% |
| N[C@@H](Cc1c[nH]c2cc(Br)ccc12)C(=O)O [Compound 9, L-6-bromotryptophan] | 20% |
| N[C@@H](Cc1c[nH]c2cccc(F)c12)C(=O)O [Compound 15, D/L-4-fluorotryptophan] | 15% |

Same assay, conditions: incorporation only at residue-1; analogue fed at 2 mM; judged by comparison to taromycin yields by S. coelicolor M1146-tarM1

| Molecule | Feeding, % incorporation, A1 domain |
| --- | --- |
| N[C@@H](Cc1c[nH]c2ccc(Cl)cc12)C(=O)O [Compound 14, D/L-5-chlorotryptophan] | 30% |
| N[C@@H](Cc1c[nH]c2ccc(Br)cc12)C(=O)O [Compound 8, L-5-Bromotryptophan] | 50% |
| L-5-OH-Trp [Compound 20] | 10% |
| Cc1ccc2[nH]cc(C[C@H](N)C(=O)O)c2c1 [Compound 18, D/L-5-methyltryptophan] | 35% |
| N[C@@H](Cc1c[nH]c2cc(F)ccc12)C(=O)O [Compound 16, D/L-6-fluorotryptophan] | <5% |
| N[C@@H](Cc1c[nH]c2cccc(F)c12)C(=O)O [Compound 15, D/L-4-fluorotryptophan] | 15% |
| NC(Cc1c[nH]c2ccc([N+](=O)[O-])cc12)C(=O)O [Compound 21, D/L-5-NO2-Trp] | 60% |
| L-7-Br-Trp [Compound 13] | <5% |
| Cc1cccc2[nH]cc(C[C@H](N)C(=O)O)c12 [Compound 17, D/L-4-methyltryptophan] | 40% |
| L-5-CH3O-Trp [Compound 19] | 15% |

Each molecule was assayed on Tar16 (assay: Coupled Tar13/Tar16 assay (Tar16 substrate generated in situ by Tar13)). Conditions: Tar16 added to Tar13 reaction.
Format: biochemical, Saccharomonospora sp. CNQ-490
Protocol: Coupled Tar13 Tar]6. The reaction mixture of total volume 100 μL in 1.5 mL Eppendorf tube was composed of the following components:
Buffer: up to 50 μL (50 mM Tris, 500 mM NaCl 10% glycerol, pH 8.0
Substrate (for Tar13 enzyme): 0.25 μM
(§1) In a separate Eppendorf tube premix:
Buffer: up to […] (50 mM Tris, 500 mM NaCl 10% glycerol, pH 8.0)
Add substrate solution to the enzyme mixture to start reaction.
No difference in conversion was observed when Tar16 was added into the assay mixture either together with Tar13, or after 2 h of incubation at 30° C., or after overnight incubation at 30° C., followed by another 4 h of incubation after addition of Tar16. Therefore, for convenience, all components were mixed at the same time point, the reactions were incubated at 30° C. overnight, after which the assays were quenched by addition of equal volume of HPLC grade methanol.

| Molecule | Conversion in coupled Tar13/Tar16 reaction |
| --- | --- |
| N[C@@H](Cc1c[nH]c2cc(Cl)ccc12)C(=O)O [Compound 7, L-6-Chlorotryptophan] | full conversion |

Same assay, conditions: substrates generated in situ by Tar13; Tar16 10 μM; overnight at 30° C.

| Molecule | Enzyme assays, % conversion, Tar16 |
| --- | --- |
| N[C@@H](Cc1c[nH]c2ccc(Cl)cc12)C(=O)O [Compound 14, D/L-5-chlorotryptophan] | 100% |
| N[C@@H](Cc1c[nH]c2ccc(Br)cc12)C(=O)O [Compound 8, L-5-Bromotryptophan] | 100% |
| Cc1ccc2[nH]cc(C[C@H](N)C(=O)O)c2c1 [Compound 18, D/L-5-methyltryptophan] | 70% |
| N[C@@H](Cc1c[nH]c2cc(Cl)ccc12)C(=O)O [Compound 7, L-6-Chlorotryptophan] | 100% |
| N[C@@H](Cc1c[nH]c2cc(F)ccc12)C(=O)O [Compound 16, D/L-6-fluorotryptophan] | 100% |
| N[C@@H](Cc1c[nH]c2cc(Br)ccc12)C(=O)O [Compound 9, L-6-bromotryptophan] | 100% |
| N[C@H](Cc1c[nH]c2ccccc12)C(=O)O [Compound 11, D-tryptophan] | 40% |
| L-5-CH3O-Trp [Compound 19] | 100% |

The molecules below were run on Tar13 (assay: Tar13 in vitro assay with substrate analogues). Conditions: not given.
Format: biochemical, Saccharomonospora sp. CNQ-490
Protocol: Tar13. Upon testing different reaction compositions (buffers, concentration of ascorbic acids and hemin, pH), the following conditions were found as optimal:
Buffer: up to 50 μL (50 mM Tris, 500 mM NaCl 10% glycerol, pH 8.0)
as §1
Add substrate solution to the enzyme mixture to start reaction
When Tar13 was directly added to the enzyme reaction, immediate protein precipitation occurred. The same was observed if the enzyme was not pre-mixed with hemin and ascorbic acid. Full substrate conversion was achieved after overnight incubation at 30° C. in 1.5 mL Eppendorf tube with shaking. The reactions were quenched by addition of equal volume of HPLC grade methanol.

| Molecule | Conversion/activity as substrate for Tar13 |
| --- | --- |
| N[C@@H](Cc1c[nH]c2cc(Cl)ccc12)C(=O)O [Compound 7, L-6-Chlorotryptophan] | complete conversion |

Same assay, conditions: substrate 0.25 mM; Tar13 20 μM; overnight at 30° C.

| Molecule | Enzyme assays, % conversion, Tar13 |
| --- | --- |
| N[C@@H](Cc1c[nH]c2ccc(Cl)cc12)C(=O)O [Compound 14, D/L-5-chlorotryptophan] | <1% |
| N[C@@H](Cc1c[nH]c2ccc(Br)cc12)C(=O)O [Compound 8, L-5-Bromotryptophan] | <1% |
| Cc1ccc2[nH]cc(C[C@H](N)C(=O)O)c2c1 [Compound 18, D/L-5-methyltryptophan] | <1% |
| N[C@@H](Cc1c[nH]c2cc(Cl)ccc12)C(=O)O [Compound 7, L-6-Chlorotryptophan] | 100% |
| N[C@@H](Cc1c[nH]c2cc(F)ccc12)C(=O)O [Compound 16, D/L-6-fluorotryptophan] | 5% |
| N[C@@H](Cc1c[nH]c2cc(Br)ccc12)C(=O)O [Compound 9, L-6-bromotryptophan] | 100% |
| N[C@H](Cc1c[nH]c2ccccc12)C(=O)O [Compound 11, D-tryptophan] | <1% |
| L-5-CH3O-Trp [Compound 19] | <1% |

What follows are molecules tested on Tar14 (assay: Tar14 in vitro halogenation assay with substrate analogues). Conditions: KBr 100 mM; substrate 0.25 mM; Tar14 5 μM; 30° C., 4 h.
Format: biochemical, Saccharomonospora sp. CNQ-490
Protocol: Tar14. Tar14 reaction mixture of total volume 100 μL in 1.5 mL Eppendorf tube was composed of the following components:
Buffer (10 mM Tris, 10% glycerol, pH 7.6): up to 100 μL

| Molecule | Enzyme assays, % conversion, Tar14, Br^− |
| --- | --- |
| N[C@@H](Cc1c[nH]c2ccc(Cl)cc12)C(=O)O [Compound 14, D/L-5-chlorotryptophan] | <1% |
| N[C@@H](Cc1c[nH]c2cccc(Br)c12)C(=O)O [Compound 12, L-4-bromotryptophan] | <5% |
| L-5-OH-Trp [Compound 20] | <1% |
| Cc1ccc2[nH]cc(C[C@H](N)C(=O)O)c2c1 [Compound 18, D/L-5-methyltryptophan] | 25% |
| N[C@@H](Cc1c[nH]c2cc(Cl)ccc12)C(=O)O [Compound 7, L-6-Chlorotryptophan] | <5% |
| N[C@@H](Cc1c[nH]c2cc(F)ccc12)C(=O)O [Compound 16, D/L-6-fluorotryptophan] | 25% |
| N[C@@H](Cc1c[nH]c2cc(Br)ccc12)C(=O)O [Compound 9, L-6-bromotryptophan] | <1% |
| Nc1cc(Cl)ccc1C(=O)CC(N)C(=O)O [Compound 1, L-4-chlorokynurenine] | 5% |
| Nc1ccccc1C(=O)C[C@H](N)C(=O)O [Compound 5, L-kynurenine] | 30% |
| N[C@@H](Cc1c[nH]c2cccc(F)c12)C(=O)O [Compound 15, D/L-4-fluorotryptophan] | 15% |
| L-7-Br-Trp [Compound 13] | 100% |
| N[C@H](Cc1c[nH]c2ccccc12)C(=O)O [Compound 11, D-tryptophan] | 20% |
| Cc1cccc2[nH]cc(C[C@H](N)C(=O)O)c12 [Compound 17, D/L-4-methyltryptophan] | 75% |
| L-5-CH3O-Trp [Compound 19] | <5% |

Same assay, conditions: NaCl 100 mM; substrate 0.25 mM; Tar14 5 μM; 30° C., 4 h

| Molecule | Enzyme assays, % conversion, Tar14, Cl^− |
| --- | --- |
| N[C@@H](Cc1c[nH]c2ccc(Cl)cc12)C(=O)O [Compound 14, D/L-5-chlorotryptophan] | <1% |
| N[C@@H](Cc1c[nH]c2ccc(Br)cc12)C(=O)O [Compound 8, L-5-Bromotryptophan] | <1% |
| N[C@@H](Cc1c[nH]c2cccc(Br)c12)C(=O)O [Compound 12, L-4-bromotryptophan] | <1% |
| L-5-OH-Trp [Compound 20] | 5% |
| Cc1ccc2[nH]cc(C[C@H](N)C(=O)O)c2c1 [Compound 18, D/L-5-methyltryptophan] | 50% |
| N[C@@H](Cc1c[nH]c2cc(F)ccc12)C(=O)O [Compound 16, D/L-6-fluorotryptophan] | 25% |
| Nc1cc(Cl)ccc1C(=O)CC(N)C(=O)O [Compound 1, L-4-chlorokynurenine] | <1% |
| Nc1ccccc1C(=O)C[C@H](N)C(=O)O [Compound 5, L-kynurenine] | 30% |
| N[C@@H](Cc1c[nH]c2cccc(F)c12)C(=O)O [Compound 15, D/L-4-fluorotryptophan] | 10% |
| L-7-Br-Trp [Compound 13] | 100% |
| N[C@H](Cc1c[nH]c2ccccc12)C(=O)O [Compound 11, D-tryptophan] | 15% |
| Cc1cccc2[nH]cc(C[C@H](N)C(=O)O)c12 [Compound 17, D/L-4-methyltryptophan] | 100% |
| L-5-CH3O-Trp [Compound 19] | <1% |
